Laboratory results: the CheMixHub ionic liquid set
± gives the uncertainty stated by the source.

Experiment: xn = mol fraction of the nth substance listed
Details: 101 kPa, x2 = 0

CCCCCCCCCCCCOS(=O)(=O)[O-].[Na+] + Cc1ncc(C[n+]2csc(CCO)c2C)c(N)n1.Cl.[Cl-] + O
electrical conductivity [S/m]
Details | 288.15 K | 298.15 K | 308.15 K | 318.15 K
x1 = 7.35e-06 | 0.00102 ± 0.0006 | 0.00389 ± 0.0006 | 0.00521 ± 0.0006 | 0.0057 ± 0.0006
x1 = 1.463e-05 | 0.00278 ± 0.00061 | 0.00675 ± 0.00061 | 0.0087 ± 0.00062 | 0.00954 ± 0.00062
x1 = 2.184e-05 | 0.00515 ± 0.00061 | 0.00896 ± 0.00062 | 0.012 ± 0.00063 | 0.0133 ± 0.00064
x1 = 2.898e-05 | 0.00708 ± 0.00062 | 0.0117 ± 0.00064 | 0.0152 ± 0.00066 | 0.017 ± 0.00067
x1 = 3.604e-05 | 0.00931 ± 0.00064 | 0.0145 ± 0.00066 | 0.0186 ± 0.00069 | 0.0208 ± 0.00071
x1 = 4.303e-05 | 0.0116 ± 0.00066 | 0.0171 ± 0.00068 | 0.0219 ± 0.00072 | 0.0244 ± 0.00074
x1 = 4.997e-05 | 0.0139 ± 0.00069 | 0.0198 ± 0.00071 | 0.0251 ± 0.00076 | 0.0279 ± 0.00078
x1 = 5.683e-05 | 0.0162 ± 0.00072 | 0.0224 ± 0.00072 | 0.0283 ± 0.0008 | 0.0313 ± 0.00083
x1 = 6.362e-05 | 0.0186 ± 0.00071 | 0.0244 ± 0.00074 | 0.0315 ± 0.00084 | 0.0347 ± 0.00087
x1 = 7.036e-05 | 0.0202 ± 0.00072 | 0.027 ± 0.00081 | 0.0345 ± 0.00086 | 0.0381 ± 0.00092
x1 = 7.703e-05 | 0.0225 ± 0.00079 | 0.0296 ± 0.00085 | 0.0375 ± 0.00092 | 0.0414 ± 0.00098
x1 = 8.364e-05 | 0.0247 ± 0.00083 | 0.0321 ± 0.00088 | 0.0405 ± 0.00094 | 0.0448 ± 0.001
x1 = 9.018e-05 | 0.0269 ± 0.00081 | 0.0347 ± 0.00091 | 0.0432 ± 0.00099 | 0.0481 ± 0.0011
x1 = 9.658e-05 | 0.0286 ± 0.00082 | 0.0371 ± 0.00094 | 0.0461 ± 0.0011 | 0.0513 ± 0.0011
x1 = 0.0001031 | 0.0307 ± 0.0009 | 0.0395 ± 0.00098 | 0.0491 ± 0.0011 | 0.0543 ± 0.0011
x1 = 0.0001094 | 0.0328 ± 0.00095 | 0.0419 ± 0.001 | 0.0517 ± 0.0011 | 0.0573 ± 0.0012
x1 = 0.0001157 | 0.035 ± 0.00098 | 0.0442 ± 0.001 | 0.0544 ± 0.0011 | 0.0602 ± 0.0012
x1 = 0.000122 | 0.037 ± 0.00099 | 0.0466 ± 0.0011 | 0.0568 ± 0.0013 | 0.0632 ± 0.0013
x1 = 0.0001281 | 0.039 ± 0.0011 | 0.0488 ± 0.0011 | 0.0602 ± 0.0013 | 0.0659 ± 0.0013
x1 = 0.0001342 | 0.0411 ± 0.00099 | 0.0509 ± 0.001 | 0.0625 ± 0.0012 | 0.0687 ± 0.0013
x1 = 0.0001404 | 0.0425 ± 0.00077 | 0.0524 ± 0.00098 | 0.0647 ± 0.0012 | 0.0711 ± 0.0013
x1 = 0.0001465 | 0.0432 ± 0.00075 | 0.0543 ± 0.001 | 0.0667 ± 0.0011 | 0.0734 ± 0.0013
x1 = 0.0001524 | 0.0444 ± 0.00079 | 0.0559 ± 0.00095 | 0.0685 ± 0.0011 | 0.0755 ± 0.0013
x1 = 0.0001584 | 0.0452 ± 0.00078 | 0.0571 ± 0.00086 | 0.0701 ± 0.0011 | 0.0774 ± 0.0012
x1 = 0.0001641 | 0.0462 ± 0.00076 | 0.0582 ± 0.00083 | 0.0716 ± 0.0011 | 0.079 ± 0.0012
x1 = 0.0001699 | 0.0469 ± 0.00075 | 0.0592 ± 0.00082 | 0.0729 ± 0.001 | 0.0805 ± 0.0012
x1 = 0.0001757 | 0.0478 ± 0.00081 | 0.0601 ± 0.00081 | 0.0742 ± 0.001 | 0.0819 ± 0.0012
x1 = 0.0001814 | 0.0487 ± 0.00082 | 0.0609 ± 0.00081 | 0.0753 ± 0.001 | 0.0832 ± 0.0012
x1 = 0.000187 | 0.0495 ± 0.00077 | 0.0617 ± 0.00082 | 0.0764 ± 0.0011 | 0.0845 ± 0.0012
x1 = 0.0001928 | 0.0501 ± 0.00073 | 0.0626 ± 0.00085 | 0.0775 ± 0.0011 | 0.0857 ± 0.0012
x1 = 0.0001982 | 0.0507 ± 0.00073 | 0.0634 ± 0.00083 | 0.0785 ± 0.0011 | 0.0868 ± 0.0012
x1 = 0.0002038 | 0.0513 ± 0.0007 | 0.0641 ± 0.00082 | 0.0796 ± 0.0011 | 0.0879 ± 0.0012
x1 = 0.0002092 | 0.0517 ± 0.00068 | 0.0648 ± 0.00083 | 0.0805 ± 0.0011 | 0.089 ± 0.0012
x1 = 0.0002147 | 0.0521 ± 0.00071 | 0.0654 ± 0.00082 | 0.0815 ± 0.0011 | 0.0902 ± 0.0013
x1 = 0.00022 | 0.0527 ± 0.00076 | 0.066 ± 0.00083 | 0.0824 ± 0.0011 | 0.0912 ± 0.0013
x1 = 0.0002254 | 0.0532 ± 0.00076 | 0.0666 ± 0.00086 | 0.0834 ± 0.0011 | 0.0924 ± 0.0014
x1 = 0.0002306 | 0.0537 ± 0.00075 | 0.0673 ± 0.0009 | 0.0843 ± 0.0012 | 0.0936 ± 0.0014
x1 = 0.0002358 | 0.0542 ± 0.00077 | 0.068 ± 0.00091 | 0.0852 ± 0.0012 | 0.0946 ± 0.0013
x1 = 0.0002411 | 0.0548 ± 0.00081 | 0.0686 ± 0.00092 | 0.0861 ± 0.0012 | 0.0956 ± 0.0013
x1 = 0.0002463 | 0.0554 ± 0.00084 | 0.0693 ± 0.002 | 0.087 ± 0.0019 | 0.0966 ± 0.0013
